In one test the target is BRD4(49-170) bromodomain (Homo sapiens (Human), UniProt O60885). The experiment in a line: BRD4 AlphaScreen Assay. The conditions noted are these: binding to biotin-H4(1-21) Ac-K5/8/12/16 peptide. On the procedure: (§1) Specific binding of the CBP or BRD4 bromodomain to the acetylated peptide derived from the H4 histone substrate (tetra acetylated H4(1-21) Ac-K5/8/12/16) was measured in absence or presence of inhibitors.
(§2) The standard dose response curves were fitted by Genedata Screener software using the variable-slope model: Signal=Signalnegative control+(SignalDMSO control−Signalnegative control)/(1+(IC50/Dose)^Hill slope).
(§3) Only Signal and Dose in the equation were treated as known values.

The target of test [1] is GST-CBP(1081-1197) bromodomain (Homo sapiens (Human), UniProt Q92793). The test is described as follows: CBP AlphaScreen Assay. The conditions noted are these: binding to biotin-H4(1-21) Ac-K5/8/12/16 peptide. On the procedure:
as §1, §2, §3

We go through 25 molecules from patent US11058688B2, “Imidazopiperazine inhibitors of transcription activating proteins” (Board of Regents, The University of Texas System, priority 2018, dated 2021).

SMILES strings stand for the structures.

Chain of GST-CBP(1081-1197) bromodomain (Q92793 1081-1197): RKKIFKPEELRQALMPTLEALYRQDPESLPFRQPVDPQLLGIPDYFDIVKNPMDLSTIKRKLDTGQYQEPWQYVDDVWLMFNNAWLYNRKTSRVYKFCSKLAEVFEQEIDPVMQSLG

Turning to `CNC(=O)N1CCn2c(C3CC3)nc(-c3c[nH]c4cc(-c5cnn(C)c5)ncc34)c2C1` [Example 38, 3-Cyclopropyl-N-methyl-1-(6-(1-methyl-1H-pyrazol-4-yl)-1H-pyrrolo[3,2-c]pyridin-3-yl)-5,6-dihydroimidazo[1,5-a]pyrazine-7(8H)-carboxamide], the IC50 on BRD4(49-170) bromodomain turned out to be 19.8 µM; in test [1] it was 32 nM.

Take `CNC(=O)N1CCn2c(C3CC3)nc(-c3csc4cc(-c5cnn(C)c5)ncc34)c2C1` [Example 39, 3-Cyclopropyl-N-methyl-1-(6-(1-methyl-1H-pyrazol-4-yl)thieno[3,2-c]pyridin-3-yl)-5,6-dihydroimidazo[1,5-a]pyrazine-7(8H)-carboxamide]: the IC50 stood at 14.8 µM at BRD4(49-170) bromodomain and 33 nM in test [1].

On to `CNC(=O)N1CCn2c(C3CC3)nc(-c3cncc4cc(-c5cnn(C)c5)c(C(F)F)cc34)c2C1` [Example 40, 3-Cyclopropyl-1-(6-(difluoromethyl)-7-(1-methyl-1H-pyrazol-4-yl)isoquinolin-4-yl)-N-methyl-5,6-dihydroimidazo[1,5-a]pyrazine-7(8H)-carboxamide], for which the half-maximal inhibitory concentration (IC50) came out at 4.78 µM at BRD4(49-170) bromodomain and 2 nM in test [1].

Regarding `CC(=O)N1CCn2c(C3CC3)nc(-c3cnc(N)c(OC(F)(F)F)c3)c2C1` [Example 41, 1-(1-(6-amino-5-(trifluoromethoxy)pyridin-3-yl)-3-cyclopropyl-5,6-dihydroimidazo[1,5-a]pyrazin-7(8H)-yl)ethan-1-one], the half-maximal inhibitory concentration (IC50) is above 25 µM at BRD4(49-170) bromodomain and 4490 nM in test [1].

Regarding `COc1ccc(-c2nc(C3CC3)n3c2CN(C(C)=O)CC3)cc1OC` [Example 42, 1-(3-cyclopropyl-1-(3,4-dimethoxyphenyl)-5,6-dihydroimidazo[1,5-a]pyrazin-7(8H)-yl)ethan-1-one], the values for the IC50 (at BRD4(49-170) bromodomain; in test [1]) were above 25 µM and 4260 nM, respectively.

On to `CC(=O)N1CCn2c(C3CC3)nc(-c3ccc4c(cnn4C)c3)c2C1` [Example 43, 1-(3-cyclopropyl-1-(1-methyl-1H-indazol-5-yl)-5,6-dihydroimidazol[1,5-a]pyrazin-7(8H)-yl)ethan-1-one], for which the IC50 is above 25 µM on BRD4(49-170) bromodomain and 3190 nM in test [1].

For `CC(=O)N1CCn2c(C3CC3)nc(-c3ccc4c(c3)c(-c3cnn(C)c3)nn4C)c2C1` [Example 44, 1-(3-cyclopropyl-1-(1-methyl-3-(1-methyl-1H-pyrazol-4-yl)-1H-indazol-5-yl)-5,6-dihydroimidazo[1,5-a]pyrazin-7(8H)-yl)ethan-1-one], the figures for the IC50 (on BRD4(49-170) bromodomain; in test [1]) were 12.1 µM and 47 nM, respectively.

`CC(=O)N1CCn2c(C3CCOC3)nc(-c3ccc4c(c3)c(-c3cnn(C)c3)nn4C)c2C1` (centres unmarked) [Example 45, 1-(1-(1-methyl-3-(1-methyl-1H-pyrazol-4-yl)-1H-indazol-5-yl)-3-(tetrahydrofuran-3-yl)-5,6-dihydroimidazo[1,5-a]pyrazin-7(8H)-yl)ethan-1-one]: the concentration for half-maximal inhibition (IC50) on BRD4(49-170) bromodomain worked out at 6.29 µM; in test [1] it was 124 nM.

Regarding `CC(=O)N1CCn2c(C3CCC3)nc(-c3ccc4c(c3)c(-c3cnn(C)c3)nn4C)c2C1` [Example 46, 1-(3-cyclobutyl-1-(1-methyl-3-(1-methyl-1H-pyrazol-4-yl)-1H-indazol-5-yl)-5,6-dihydroimidazo[1,5-a]pyrazin-7(8H)-yl)ethan-1-one], the IC50 on BRD4(49-170) bromodomain is above 10 µM; in test [1], 52 nM.

In the case of `CC(=O)N1CCn2c(C)nc(-c3ccc4c(c3)c(-c3cnn(C)c3)nn4C)c2C1` [Example 47, 1-(3-methyl-1-(1-methyl-3-(1-methyl-1H-pyrazol-4-yl)-1H-indazol-5-yl)-5,6-dihydroimidazo[1,5-a]pyrazin-7(8H)-yl)ethan-1-one], the 50% inhibitory concentration (IC50) at BRD4(49-170) bromodomain is above 10 µM; in test [1], 153 nM.

Regarding `CNC(=O)N1CCn2c(C)nc(-c3ccc4c(c3)c(-c3cnn(C)c3)nn4C)c2C1` [Example 48, N,3-dimethyl-1-(1-methyl-3-(1-methyl-1H-pyrazol-4-yl)-1H-indazol-5-yl)-5,6-dihydroimidazo[1,5-a]pyrazine-7(8H)-carboxamide], the figures for the half-inhibitory concentration (IC50) (on BRD4(49-170) bromodomain; in test [1]) were above 10 µM and 36 nM, respectively.

Turning to `CC(=O)N1CCn2c(C(C)C)nc(-c3ccc4c(c3)c(-c3cnn(C)c3)nn4C)c2C1` [Example 49, 1-(3-isopropyl-1-(1-methyl-3-(1-methyl-1H-pyrazol-4-yl)-1H-indazol-5-yl)-5,6-dihydroimidazo[1,5-a]pyrazin-7(8H)-yl)ethan-1-one], the IC50 at BRD4(49-170) bromodomain is above 10 µM; in test [1], 67 nM.

Regarding `CNC(=O)N1CCn2c(C(C)C)nc(-c3ccc4c(c3)c(-c3cnn(C)c3)nn4C)c2C1` [Example 50, 3-isopropyl-N-methyl-1-(1-methyl-3-(1-methyl-1H-pyrazol-4-yl)-1H-indazol-5-yl)-5,6-dihydroimidazo[1,5-a]pyrazine-7(8H)-carboxamide], the IC50 was above 10 µM at BRD4(49-170) bromodomain and 12 nM in test [1].

In the case of `CC(=O)N1CCn2c(C3CCNCC3)nc(-c3ccc4c(c3)c(-c3cnn(C)c3)nn4C)c2C1` [Example 51, 1-(1-(1-methyl-3-(1-methyl-1H-pyrazol-4-yl)-1H-indazol-5-yl)-3-(piperidin-4-yl)-5,6-dihydroimidazo[1,5-a]pyrazin-7(8H)-yl)ethan-1-one], the IC50 at BRD4(49-170) bromodomain is above 10 µM; in test [1], 149 nM.

Regarding `CNC(=O)N1CCn2c(C3CCNCC3)nc(-c3ccc4c(c3)c(-c3cnn(C)c3)nn4C)c2C1` [Example 52, N-methyl-1-(1-methyl-3-(1-methyl-1H-pyrazol-4-yl)-1H-indazol-5-yl)-3-(piperidin-4-yl)-5,6-dihydroimidazo[1,5-a]pyrazine-7(8H)-carboxamide], the IC50 at BRD4(49-170) bromodomain is above 10 µM; in test [1], 20 nM.

For `CC(=O)N1CCC(c2nc(-c3ccc4c(c3)c(-c3cnn(C)c3)nn4C)c3n2CCN(C(C)=O)C3)CC1` [Example 53, 1-(4-(7-acetyl-1-(1-methyl-3-(1-methyl-1H-pyrazol-4-yl)-1H-indazol-5-yl)-5,6,7,8-tetrahydroimidazo[1,5-a]pyrazin-3-yl)piperidin-1-yl)ethan-1-one], the IC50 was above 10 µM on BRD4(49-170) bromodomain and 176 nM in test [1].

Consider `CC(=O)N1CCn2c(C3CCN(C)CC3)nc(-c3ccc4c(c3)c(-c3cnn(C)c3)nn4C)c2C1` [Example 54, 1-(1-(1-methyl-3-(1-methyl-1H-pyrazol-4-yl)-1H-indazol-5-yl)-3-(1-methylpiperidin-4-yl)-5,6-dihydroimidazo[1,5-a]pyrazin-7(8H)-yl)ethan-1-one], for which the 50% inhibitory concentration (IC50) on BRD4(49-170) bromodomain was above 10 µM; in test [1], 141 nM.

In the case of `CNC(=O)N1CCn2c(C3CCN(C(C)=O)CC3)nc(-c3ccc4c(c3)c(-c3cnn(C)c3)nn4C)c2C1` [Example 55, 3-(1-acetylpiperidin-4-yl)-N-methyl-1-(1-methyl-3-(1-methyl-1H-pyrazol-4-yl)-1H-indazol-5-yl)-5,6-dihydroimidazo[1,5-a]pyrazine-7(8H)-carboxamide], the IC50 at BRD4(49-170) bromodomain is above 10 µM; in test [1] it was 18 nM.

For `CNC(=O)N1CCn2c(C3CCN(C)CC3)nc(-c3ccc4c(c3)c(-c3cnn(C)c3)nn4C)c2C1` [Example 56, N-methyl-1-(1-methyl-3-(1-methyl-1H-pyrazol-4-yl)-1H-indazol-5-yl)-3-(1-methylpiperidin-4-yl)-5,6-dihydroimidazo[1,5-a]pyrazine-7(8H)-carboxamide], the 50% inhibitory concentration (IC50) is above 10 µM on BRD4(49-170) bromodomain and 22 nM in test [1].

On to `CNC(=O)c1ccc(-c2cc3cccc(-c4nc(C5CCOCC5)n5c4CN(C(=O)NC)CC5)c3cn2)cn1` [Example 57, N-methyl-1-(3-(6-(methylcarbamoyl)pyridin-3-yl)isoquinolin-8-yl)-3-(tetrahydro-2H-pyran-4-yl)-5,6-dihydroimidazo[1,5-a]pyrazine-7(8H)-carboxamide], for which the half-inhibitory concentration (IC50) on BRD4(49-170) bromodomain worked out at 5.97 µM; in test [1], 1 nM.

Take `CNC(=O)N1CCn2c(C3CC(F)(F)C3)nc(-c3cccc4nc(-c5cnn(C)c5)c(C(F)F)cc34)c2C1` [Example 58, 3-(3,3-difluorocyclobutyl)-1-(3-(difluoromethyl)-2-(1-methyl-1H-pyrazol-4-yl)quinolin-5-yl)-N-methyl-5,6-dihydroimidazo[1,5-a]pyrazine-7(8H)-carboxamide]: the IC50 at BRD4(49-170) bromodomain was above 10 µM; in test [1], 49 nM.

Regarding `CNC(=O)N1CCn2c(C3CCC(F)(F)CC3)nc(-c3cccc4nc(-c5cnn(C)c5)c(C(F)F)cc34)c2C1` [Example 59, 3-(4,4-difluorocyclohexyl)-1-(3-(difluoromethyl)-2-(1-methyl-1H-pyrazol-4-yl)quinolin-5-yl)-N-methyl-5,6-dihydroimidazo[1,5-a]pyrazine-7(8H)-carboxamide], the IC50 at BRD4(49-170) bromodomain stood at 19 µM; in test [1], 5 nM.

For `CNC(=O)N1CCn2c(C3CC3(F)F)nc(-c3cccc4nc(-c5cnn(C)c5)c(C(F)F)cc34)c2C1` (centres unmarked) [Example 60, 3-(2,2-difluorocyclopropyl)-1-(3-(difluoromethyl)-2-(1-methyl-1H-pyrazol-4-yl)quinolin-5-yl)-N-methyl-5,6-dihydroimidazo[1,5-a]pyrazine-7(8H)-carboxamide], the 50% inhibitory concentration (IC50) at BRD4(49-170) bromodomain was 15.8 µM; in test [1] it was 18 nM.

For `CNC(=O)N1CCn2c(C3CCC(F)(F)C3)nc(-c3cccc4nc(-c5cnn(C)c5)c(C(F)F)cc34)c2C1` (centres unmarked) [Example 61, 3-(3,3-difluorocyclopentyl)-1-(3-(difluoromethyl)-2-(1-methyl-1H-pyrazol-4-yl)quinolin-5-yl)-N-methyl-5,6-dihydroimidazo[1,5-a]pyrazine-7(8H)-carboxamide], the IC50 at BRD4(49-170) bromodomain was determined as 13.9 µM; in test [1], 25 nM.

On to `CNC(=O)N1CCn2c(C3CC3)nc(-c3cccc4nc(-c5cnn(C)c5)c(C(F)(F)F)cc34)c2C1` [Example 62, 3-cyclopropyl-N-methyl-1-(2-(1-methyl-1H-pyrazol-4-yl)-3-(trifluoromethyl)quinolin-5-yl)-5,6-dihydroimidazo[1,5-a]pyrazine-7(8H)-carboxamide], for which the results for the IC50 (at BRD4(49-170) bromodomain; in test [1]) were 13.5 µM and 5 nM, respectively.
